The test system of the test is HCV 1b-377-neo replicon cells. Put plainly: HCV replicon assay, wild-type cells. The following applies: read-out: EC50 against the HCV 1b genotype (Activity). In kind it is cell-based. On the procedure:
An HCV Replion assay was utilized in the present disclosure, and was prepared, conducted and validated as described in commonly owned PCT/US2006/022197 and in O'Boyle et. al. Antimicrob Agents Chemother. 2005 April; 49(4): 1346-53.
HCV 1b-377-neo replicon cells were used to test representative compounds described within this disclosure as were cells resistant to compound A due to a Y2065H mutation in NS5A (described in application PCT/US2006/022197). The compounds tested were determined to have an approximately 10-fold less inhibitory activity on cells resistant to compound A than wild-type cells indicating a related mechanism of action between the two compound series. Thus, the compounds can be effective to be effective to inhibit the function of the HCV NS5A protein and are understood to be as effective in combinations as previously described in application PCT/US2006/022197 and commonly owned WO/04014852. Further, the compounds are effective against the HCV 1b genotype. It should also be understood that the compounds of the present disclosure can inhibit multiple genotypes of HCV. […] Ranges are as follows: A=1-10 μM; B=100-999 nM; C=1-99 nM; and D=10-999 pM.

Like-named read-outs stand apart in the source and are kept apart here.

By EC50 is commonly meant the midpoint of the concentration-response curve.

Take `COC(=O)N[C@H](C(=O)N1CCC[C@H]1c1cnc(-c2ccc(-c3ccc(-c4cnc([C@@H]5CCCN5C(=O)[C@@H](NC(=O)OC)[C@@H](C)OC)o4)cc3)cc2)[nH]1)[C@@H](C)OC` [Example 38]: the half-maximal effective concentration (EC50) (Hepatitis C virus) fell in the range of 0.01 to 0.999 nM.

Consider `CN(C)[C@@H](C(=O)N1CCC[C@H]1c1cc(-c2ccc(-c3ccc(-c4cnc([C@@H]5CCCN5C(=O)[C@@H](c5ccccc5)N(C)C)[nH]4)cc3)cc2)n[nH]1)c1ccccc1` [Example 32], for which, for the setting “Hepatitis C virus”, the EC50 lay within 0.01 to 0.999 nM.

Turning to `COC(=O)N[C@@H](C(=O)N1CCC[C@H]1c1cc(-c2ccc(-c3ccc(-c4cnc([C@@H]5CCCN5C(=O)[C@H](NC(=O)OC)c5ccccc5)[nH]4)cc3)cc2)n[nH]1)c1ccccc1` [Example 31], the EC50 (Hepatitis C virus) was in the range of 0.01 to 0.999 nM.

As for `COC(=O)N[C@@H](C(=O)N1CCC[C@H]1c1nnc(-c2ccc(-c3ccc(-c4nnc([C@@H]5CCCN5C(=O)[C@H](NC(=O)OC)c5ccccc5)[nH]4)cc3)cc2)[nH]1)c1ccccc1` [Example 34], the EC50 (Hepatitis C virus) was 0.01 to 0.999 nM.

As for `COC(=O)NC(C(=O)N1CCCC1c1cc(-c2ccc(-c3ccc(-c4cc(C5CCCN5C(=O)C(NC(=O)OC)c5ccccc5)n[nH]4)cc3)cc2)[nH]n1)c1ccccc1` [Example 30, Dimethyl-(1R,1′R)-2,2′-((2S,2′S)-2,2′-(5,5′-(biphenyl-4,4′-diyl)bis(1H-pyrazole-5,3-diyl))bis(pyrrolidine-2,1-diyl))bis(2-oxo-1-phenylethane-2,1-diyl)dicarbamate], the EC50 lay within 1 to 99 nM.

For the compound `COC(=O)N[C@@H](C(=O)N1CCC[C@H]1c1ncc(-c2ccc(-c3ccc(-c4nnc([C@@H]5CCCN5C(=O)[C@H](NC(=O)OC)c5ccccc5)[nH]4)cc3)cc2)[nH]1)c1ccccc1` [Example 33], for the setting “Hepatitis C virus”, the EC50 was 0.01 to 0.999 nM.

For the compound `CN(C)[C@@H](C(=O)N1CCC[C@H]1c1nnc(-c2ccc(-c3ccc(-c4nnc([C@@H]5CCCN5C(=O)[C@@H](c5ccccc5)N(C)C)[nH]4)cc3)cc2)[nH]1)c1ccccc1` [Example 35], where the note is “Hepatitis C virus”, the EC50 is 1 to 99 nM.

Source of the values: US7741347B2, “Hepatitis C virus inhibitors” (Bristol-Myers Squibb Company, priority 2007, dated 2010).
